# Legend:
# Hb-AGE = conditions: diabetic patients treated for 28 days; WO 93/13421; cited from earlier work
# [1] = system: advanced glycosylation endproducts; conditions: U.S. Pat. No. 4,758,583; cited from earlier work
# monoclonal antibody BH4 = test: Competition ELISA, inhibition of mAb BH4 binding; set-up: species or system mouse
# Procedure: (§1) The ability of monoclonal antibodies, mAb 4G9, mAb BH4 and mAb 2G6, raised against KLH non-enzymatically glycated by prolonged incubation with glucose (KLH-AGE), to recognize the disodium 6-(N-carboxymethylamino)caproate was determined.
# (§2) Direct ELISA and competition ELISA. For direct ELISA, 6- (N-carboxymethylamino)caproate was coated on microtiter plates, the unbound sites were blocked by incubation with Assay Buffer (25 mM borate, pH 8.0, 150 mM NaCl, 0.01% EDTA and 1% BSA). The plate was washed six times and increasing concentrations of mAb in Assay Buffer were added. […] The unbound antibodies were removed by extensive washing and the bound antibodies were detected by addition of p-nitrophenylphosphate in recording the optical density at 410 nm.
# (§3) The competition ELISA was performed by pre-coating microtiter plates with disodium 6-(N-carboxymethylamino)caproate and blocking with Assay Buffer. […] The unbound materials were removed by extensive washing and the bound mAb was detected with alkaline phosphatase labeled anti-mouse antibodies similar to direct ELISA. […]
# (§4) Competitive ELISA: Plates coated with BSA-AGE at 10 μg/ml. […] In the case of isothiocyanate the plates are soaked for 15 minutes with varying concentrations of isothiocyanate and the level of binding then measured.
# monoclonal antibody 2G6 = test: Competition ELISA, inhibition of mAb 2G6 binding; set-up: species or system mouse
# Procedure: as §1, §2, §3, §4
# monoclonal antibody 4G9 = test: Competition ELISA, inhibition of mAb 4G9 binding; set-up: species or system mouse
# Procedure: as §1, §2, §3, §4
# [2] = system: antibodies to advanced glycosylation endproducts; test: Recognition of compounds by monoclonal antibodies to advanced glycosylation endproducts (direct/competition ELISA); type: binding; conditions: qualitative
# Procedure: as §1
# Direct ELISA and competition ELISA. For direct ELISA, 6- (N-carboxymethylamino)caproate was coated on microtiter plates, the unbound sites were blocked by incubation with Assay Buffer (25 mM borate, pH 8.0, 150 mM NaCl, 0.01% EDTA and 1% BSA). The plate was washed six times and increasing concentrations of mAb in Assay Buffer were added. After this incubation, the plate was again washed and incubated with alkaline-phosphatase labeled goat anti-mouse antibodies (Cappel, Durham, N.C.) diluted 1:1000 in Assay Buffer. The unbound antibodies were removed by extensive washing and the bound antibodies were detected by addition of p-nitrophenylphosphate in recording the optical density at 410 nm.
# as §3
# [3] = Competitive ELISA, plates coated with BSA-AGE at 10 μg/ml
Concentration of Antigen for 50% Inhibition of mAb BH4 (monoclonal antibody BH4; [3]),"recognition by monoclonal antibody BH4 (monoclonal antibody BH4; qualitative, ELISA)",Concentration of Antigen for 50% Inhibition of mAb 2G6 (monoclonal antibody 2G6; [3]),"recognition by monoclonal antibody 2G6 (monoclonal antibody 2G6; qualitative, ELISA)",Concentration of Antigen for 50% Inhibition of mAb 4G9 (monoclonal antibody 4G9; [3]),"recognition by monoclonal antibody 4G9 (monoclonal antibody 4G9; qualitative, ELISA)",SMILES,levels of Hb-AGE at the end of the treatment period (Hb-AGE),inhibition of formation of advanced glycosylation endproducts [1],recognition by antibodies which recognize advanced glycosylation endproducts [2]
,,,,,,N=C(N)NN [aminoguanidine],significantly decreased levels of Hb-AGE,identified as an inhibitor,
5.7 pmol/well,displayed recognition,21 pmol/well,displayed recognition,11 pmol/well,displayed recognition,"O=C(O)CCCCCNCC(=O)O [ALT-927, disodium 6-(N-carboxymethylamino)caproate]",,,have been shown to recognize

# Reference: US5869527A, “6-(N-carboxymethylamino)caproate, salts thereof and methods of use therefor” (Alteon Inc., priority 1996, dated 1999)
